# Tests used:
# Staphylococcus aureus [1] = assay: Antibacterial activity against methicillin-susceptible Staphylococcus aureus ATCC 29213 by broth dilution assay; type: functional
# Staphylococcus aureus [2] = assay: Antibacterial activity against methicillin-resistant Staphylococcus aureus clinical isolate SA86 by broth dilution assay; type: functional
SMILES,MIC (Staphylococcus aureus [1]) [µg/mL],MIC (Staphylococcus aureus [2]) [µg/mL]
CC[C@@H](C)[C@@H](NC(=O)[C@@H](CCC(N)=O)NC(=O)[C@H](CO)NC(=O)[C@@H](NC(=O)[C@@H](Cc1ccccc1)NC)[C@@H](C)CC)C(=O)N[C@H](C(=O)N[C@@H](CO)C(=O)N[C@H]1C(=O)N[C@@H](C)C(=O)N[C@@H](CCCN)C(=O)N[C@@H](CC(C)C)C(=O)O[C@H]1C)[C@@H](C)CC,≥ 32,≥ 32
CC[C@@H](C)[C@@H](NC(=O)[C@@H](CCC(N)=O)NC(=O)[C@H](CO)NC(=O)[C@@H](NC(=O)[C@@H](Cc1ccccc1)NC)[C@@H](C)CC)C(=O)N[C@H](C(=O)N[C@@H](CO)C(=O)N[C@H]1C(=O)N[C@@H](C)C(=O)N[C@@H](CCCN)C(=O)N[C@@H](C(C)C)C(=O)O[C@H]1C)[C@@H](C)CC,8,8

# — ChEMBL document CHEMBL4184145, “Synthesis and structure-activity relationship of teixobactin analogues via convergent Ser ligation” (2017)
